Marks after values point to notes of the source that are not given here.

The subject of assay [1] is AHAS enzyme of WT line (B7). Description: AHAS enzyme activity assay, Sets 1 and 2. The assay is classed as biochemical, sunflower. The note with it: 100 μM. On the procedure:
Twelve greenhouse grown sunflower plants from each of the lines depicted in Table 21 were bulked and subjected to an AHAS enzyme activity assay via the method of Singh et al. (1988) Anal. Biochem. 171:173-179. Each activity assay was repeated twice. Due to the large number of samples, the experiment was split into two sets (Table 21).
Young, actively growing leaves, from four week old plantlets, were ground in a mortar and pestle with liquid N2 and extracted with a buffer composed of 100 mM Pyruvate, 200 mM KH2PO4, 20 mM MgCl2, 2 mM thiamine pyrophosphate and […]. Plant extracts were then spun through a 10 mL Zeba™ TM desalt spin column (Pierce #89893) as per the manufacturer's recommendation. The inhibition assay was performed as described by Singh et al. (1988) Anal. Biochem. 171:173-179. Assays were conducted in a 96-well format. Fifty μl of inhibitor was added to each well containing 50 μl of soluble protein extract to give final concentrations of 0.78, 1.56, 3.125, 6.25, 12.5, 25, 50 and 100 μM imazamox or 0.78, 1.56, 3.125, 6.25, 12.5, 25, 50 and 100 μM imazapyr. Zero herbicide controls were also included for each line. […] Absorbance was measured at 530 nm. AHAS activity, expressed as the mean of the absorbance values for each treatment, was presented as a percentage of the mean of the zero-herbicide controls.

For assay [2], the system named is sunflower line B770 (conventional). In words: tolerance to imidazolinones, greenhouse (Example 8).
Assay [3] concerns control line HA425 (A205V). Description: imazapyr challenge of segregating population (Example 1). Format: in vivo, sunflower. The settings on record: 320 g a.i. ha-1. As for the experimental part: To determine the phenotypic interactions of the resistance gene A122T and the Imr1 gene (A205V) already described in IMI-R sunflowers (HA425), F1, F2 and BC1F1 populations from the cross GM40 (A122T)/HA425 (A205V) were evaluated at two herbicide applications rates (80 and 320 g. a. i. Ha^−1 of imazapyr). […] When F2 and BC1F1 populations were scored at the higher herbicide rate (320 g. a. i. Ha-1), which discriminates both parents, segregation for susceptibility was observed. Only two phenotypic classes could be detected, a resistant class with plants without any injury or slight symptoms and a susceptible phenotype that was killed like the control line HA425.

In assay [4] the test system is sunflower hybrid H5 (L3 x WT), 122/Wild type. Description: field trial, imazapyr at V8 or R1 stage (Example 4). The settings on record: H5 122/Wild type.
Assay [5] deals with sunflower line BTI-OL-M1709. Description: tolerance to imidazolinones, greenhouse (Example 8). The settings on record: 160 gr/ha at V4, fourteen days after treatment.
In assay [6] the test system is sunflower line VB141 (high oleic). The description is as above.
Assay [7] has as its system sunflower line BTI-OL-2201. Described as above. The note with it: 160 gr/ha at V4, fourteen days after treatment.
Assay [8] deals with sunflower genotypes carrying A205V (mean of H1, L1, L2). Description: imazapyr whole plant greenhouse test (Example 2). The assay is classed as in vivo. The note with it: for Phytotoxicity Index (0-9) 14 days after treatment / biomass accumulation 14 days after treatment, % of untreated / plant height 14 days after treatment, % of untreated: A205V Mean. On the procedure: Seeds were sown in Petri dishes and, after germination, plantlets were transplanted to pots of 10 cm of diameter in a potting media consisting of equal parts of vermiculite, soil and sand. Plants were grown in a greenhouse under natural light conditions supplemented with 400 W sodium halide lamps to provide a 16 hr daylength. Day/night temperatures were 25 and 20 ° C., respectively. At the V2-V4 stage (Schneiter & Miller (1981) Crop Sci. 21:901-903) 10 plants of each genotype were randomly assigned to each treatment consisting of eight imazapyr doses (0, 40, 80, 160, 240, 320, 400 and 480 g ai/ha, corresponding to untreated, 0.5×, 1×, 2×, 3×, 4×, 5× and 6×, respectively), and a zero-time biomass determination. Experiment was arranged as a randomized block design with a full factorial (sunflower line×treatment) arrangement of treatments and 10 replications.
On the day of herbicide application ten plants of each genotype were cut at the cotyledonal node and dried at 60° C. for 48 hrs for zero-time dried weight determination.
The remaining plants were maintained for 14 days after imazapyr treatment (DAT) and their height, Phytotoxicity Index (PI) and above ground dry biomass were determined Height was determined as the distance between the cotyledonal node and the apex of each plant. Above ground biomass data from each line were converted to biomass accumulation after application by subtracting the appropriate average zero- time biomass from each sample. Dry biomass data were converted to percentages of the untreated control plants within each line to allow direct comparisons between groups.

Assay [9] relates to sunflower line GM40 (A122T). Description: tolerance to imidazolinones, greenhouse (Example 8). The settings on record: 160 gr/ha at V4, fourteen days after treatment.
[10] abbreviates: 160 gr/ha at V4, fourteen days after treatment.

Consider `COCc1cnc(C2=NC(C)(C(C)C)C(=O)N2)c(C(=O)O)c1` (stereo not drawn) [imazamox], for which the figures for the “AHAS activity, % of untreated control” value in assay [1] (Set 1 (FIG. 13)) and in [1] (Set 2 (FIG. 14)) were 17% and 11%, respectively.

With `CC(C)C1(C)N=C(c2ncccc2C(=O)O)NC1=O` (stereo not drawn) [imazapyr], the “outcome of the herbicide treatment” value in assay [2] (160 gr/ha at V4) and in assay [6] (160 gr/ha at V4) was “killed” each time. The “Mean Phytotoxicity Index (0-9)” value in assay [2] (setting [10]) is recorded as 8.7; in assay [5], 0.2; in assay [6] (setting [10]), 8.5; in assay [7], 0.2; in assay [9] it was 0.2. Moreover, in assay [3], the “outcome of herbicide application” value is given as “killed”. For the same compound, the “Mean Phytotoxicity Index (0-50)” value worked out at 11.7 in [4] (160 g ai/ha applied at R1, 14 DAT); 23.3 in assay [4] (160 g ai/ha applied at R1, 21 DAT); 15 in [4] (160 g ai/ha applied at V8, 14 DAT); 5 in assay [4] (160 g ai/ha applied at V8, 21 DAT). Besides, the “Phytotoxicity Index (0-9) 14 days after treatment” value was 0 in assay [8] (dose 0.5 (0.5x, 40 g ai/ha)); 0 in assay [8] (dose 1 (1x, 80 g ai/ha)); 2.2* in [8] (dose 2 (2x, 160 g ai/ha)); 5.1** in assay [8] (dose 3 (3x, 240 g ai/ha)); 7.4** in assay [8] (dose 4 (4x, 320 g ai/ha)); 8.2** in assay [8] (dose 5 (5x, 400 g ai/ha)). In assay [8] (dose 6 (6x, 480 g ai/ha)), the “Phytotoxicity Index (0-9) 14 days after treatment” value was 8.2**. Also, the “biomass accumulation 14 days after treatment, % of untreated” value in [8] (dose 0.5 (0.5x, 40 g ai/ha)) was 95.3* %; in assay [8] (dose 1 (1x, 80 g ai/ha)), 85.5** %; in assay [8] (dose 2 (2x, 160 g ai/ha)) it was 62.8** %; in assay [8] (dose 3 (3x, 240 g ai/ha)) it was 48.1** %; in assay [8] (dose 4 (4x, 320 g ai/ha)), 33.5** %; in assay [8] (dose 5 (5x, 400 g ai/ha)) it was 28.7** %. Also, the “biomass accumulation 14 days after treatment, % of untreated” value in assay [8] (dose 6 (6x, 480 g ai/ha)) is reported as 26.1** %. For the same compound, the “plant height 14 days after treatment, % of untreated” value in assay [8] (dose 0.5 (0.5x, 40 g ai/ha)) is 99.6%; in assay [8] (dose 1 (1x, 80 g ai/ha)), 99.2%; in assay [8] (dose 2 (2x, 160 g ai/ha)) it was 73.7** %; in [8] (dose 3 (3x, 240 g ai/ha)), 50.1** %; in assay [8] (dose 4 (4x, 320 g ai/ha)), 31.5** %; in assay [8] (dose 5 (5x, 400 g ai/ha)) it was 27.7** %. Besides, the “plant height 14 days after treatment, % of untreated” value in [8] (dose 6 (6x, 480 g ai/ha)) is 30.4** %. For the same compound, in [8] (A205V homozygous, from 2x to 6x, of the untreated controls), the “height reduction, value reached” value is on record as 69.6%.

The record behind these values is US20150148234A1, “HERBICIDE-RESISTANT SUNFLOWER PLANTS WITH MULTIPLE HERBICIDE RESISTANT ALLELES OF AHASL1 AND METHODS OF USE” (NIDERA S.A., priority 2013, published 2015).
